ChEMBL document CHEMBL5728724, “6-aryl-7-substituted-3-(1H-pyrazol-5-yl)-7H-[1,2,4]triazolo[3,4-b][1,3,4]thiadiazines as inhibitors of the STAT3 pathway with anti-proliferative activity” (2021)

target: T1, Signal transducer and activator of transcription 1-alpha/beta (Homo sapiens, UniProt P42224); assay: Bioassay: Compound samples (in 3-5 mg quantities) were evaluated in a variety of assays. All compound submissions were fully characterized (1H, 13C, IR, FIRMS), satisfied purity criteria (≥95% LC/MC, ELS).
T1 sequence (P42224 whole entry): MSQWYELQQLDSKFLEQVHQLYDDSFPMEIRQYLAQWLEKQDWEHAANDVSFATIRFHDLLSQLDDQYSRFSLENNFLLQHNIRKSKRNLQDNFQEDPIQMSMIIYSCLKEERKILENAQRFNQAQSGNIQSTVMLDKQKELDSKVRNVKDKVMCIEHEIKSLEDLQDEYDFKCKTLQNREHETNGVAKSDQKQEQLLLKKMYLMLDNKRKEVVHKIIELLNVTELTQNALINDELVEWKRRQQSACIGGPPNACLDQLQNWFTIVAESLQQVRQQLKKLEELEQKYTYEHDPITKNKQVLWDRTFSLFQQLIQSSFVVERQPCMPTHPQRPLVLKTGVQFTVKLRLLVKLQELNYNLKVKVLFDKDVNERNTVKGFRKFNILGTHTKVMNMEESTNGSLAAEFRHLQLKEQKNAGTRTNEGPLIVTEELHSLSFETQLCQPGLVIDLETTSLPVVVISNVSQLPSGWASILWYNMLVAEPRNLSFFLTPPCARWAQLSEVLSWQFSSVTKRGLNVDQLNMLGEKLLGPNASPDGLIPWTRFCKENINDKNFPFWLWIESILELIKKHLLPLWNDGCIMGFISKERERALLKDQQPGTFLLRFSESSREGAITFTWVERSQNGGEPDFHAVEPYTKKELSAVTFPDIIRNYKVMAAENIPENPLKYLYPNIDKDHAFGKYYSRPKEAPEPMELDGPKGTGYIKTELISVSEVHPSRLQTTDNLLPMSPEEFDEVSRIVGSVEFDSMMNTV

Structure (SMILES) | IC50 [µM]
CC1=Nn2c(nnc2-c2cc(-c3ccccc3)[nH]n2)SC1 | > 50
c1cc(C2=Nn3c(nnc3-c3[nH]nc4c3CCC4)SC2)ccn1 | > 50
c1ccc(C2=Nn3c(nnc3-c3cc(-c4ccccc4)[nH]n3)SC2)cc1 | > 50
COc1ccc(C2=Nn3c(nnc3-c3cc(-c4ccc(F)cc4)n[nH]3)SC2C)cc1 (centres undefined) | > 30
Clc1ccc(C2=Nn3c(nnc3-c3[nH]nc4c3CCC4)SC2)cc1 | > 50
C1=Nn2c(nnc2-c2cc(-c3ccccc3)n[nH]2)SC1 | > 50
C1=Nn2c(nnc2-c2[nH]nc3c2CCC3)SC1 | > 50
CC1Sc2nnc(-c3cc(-c4ccc(F)cc4)n[nH]3)n2N=C1c1ccccc1 (centres undefined) | > 30
Clc1ccc(C2=Nn3c(nnc3-c3cc(-c4ccccc4)n[nH]3)SC2)s1 | > 50
CC(C)C1Sc2nnc(-c3[nH]nc4c3CCC4)n2N=C1c1ccc(Cl)c(Cl)c1 (centres undefined) | > 50
C1CCC(C2=Nn3c(nnc3-c3[nH]nc4c3CCC4)SC2)CC1 | > 50
c1ccc(C2=Nn3c(nnc3-c3[nH]nc4c3CCC4)SC2)cc1 | > 50
CC1=Nn2c(nnc2-c2[nH]nc3c2CCC3)SC1 | > 50
COc1ccc(C2=Nn3c(nnc3-c3[nH]nc4c3CCC4)SC2C)cc1 (centres undefined) | > 50
Clc1ccc(C2=Nn3c(nnc3-c3[nH]nc4c3CCC4)SC2)s1 | > 50
c1ccc(-c2cc(-c3nnc4n3N=C(C3CCCCC3)CS4)[nH]n2)cc1 | > 50
c1ccc(-c2cc(-c3nnc4n3N=C(c3ccncc3)CS4)[nH]n2)cc1 | > 50
COc1ccc(C2=Nn3c(nnc3-c3[nH]nc4c3CCC4)SC2C(C)C)cc1 (centres undefined) | > 50
Clc1ccc(C2=Nn3c(nnc3-c3cc(-c4ccccc4)n[nH]3)SC2)cc1Cl | > 50
